Measurements: US10155721B2, “Lignanamides and a method of treating neurodegenerative diseases by using the same” (Macau University of Science and Technology, priority 2017, dated 2018)

Assays:
Type in all cases: cell-based
[1] = system: SH-SY5Y cells; assay: Effect of the compounds on viability of SH-SY5Y cells; conditions: final concentration 50 μM, FIGS. 13A to 13C
Procedure: (§1) In one example embodiment, effects of the Sativamide A and the Sativamide B on ER stress-induced neurotoxicity on a neuroblastoma cell models (SH-SY5Y cells) are tested. SH-SY5Y cells are purchased from the American Type Culture Collection (ATCC). SH-SY5Y cells are cultured in 1:1 mixture of DMEM and F12 medium containing 10% fetal bovine serum (Gibco, Carlsbad, USA). SH-SY5Y cells are incubated at 37° C. in a humidified atmosphere of 5% CO2 and 95% air. SH-SY5Y cells are seeded into 96-well culture plates (5.0×10^3 cells/well) and cultured under standard conditions for 12 h. Cells are then treated with the Sativamide A and the Sativamide B at concentrations of 12.5 μM, 25 μM and 50 μM or a vehicle for another 12 h. After treatment, the whole medium is replaced with fresh medium containing Tm (0.1 or 1.0 μM) or Tg (10 or 100 nM) and cells are incubated for additional 48 h. After incubation, supernatant is changed by fresh medium and MTT is given at a concentration of 0.5 mg/mL. After incubation at 37° C. for 4 h, the absorbance is measured at 570 nm with a micro-plate reader.

[2] = system: PC12 cells; assay: MTT assay, thapsigargin (Tg)-induced cytotoxicity in PC12 cells; conditions: pre-treatment 12.5, 25, 50 μM for 12 h, then Tg 48 h; FIG. 12C
Procedure: (§2) In one example embodiment, effects of the Sativamide A and the Sativamide B ER stress-induced neurotoxicity on a neuroblastoma cell model (PC12 cells) are tested. PC-12 cells are purchased from the American Type Culture Collection (ATCC). PC-12 cells are cultured in DMEM medium (Invitrogen) supplemented with 100 U/ml penicillin, 100 μg/mL streptomycin, and 10% horse serum and 5% fetal bovine serum (Gibco, Carlsbad, USA). The cells are incubated at 37° C. in a humidified atmosphere of 5% CO2 and 95% air. PC12 cells are seeded into 96-well culture plates (5.0×10^3 cells/well) and cultured under standard conditions for 12 h. Cells are then treated with the Sativamide A and the Sativamide B at concentrations of 12.5 μM, 25 μM and 50 μM or a vehicle for another 12 h. After treatment, the whole medium is replaced with fresh medium containing tunicamycin (Tm) (0.1 nM or 1.0 μM) or thapsigargin (Tg) (10 nM or 100 nM) and the cells are incubated for additional 48 h. After incubation, supernatant is changed by fresh medium and thiazolyl blue tetrazolium bromide (MTT) is given at a concentration of 0.5 mg/mL. After incubation at 37° C. for 4 h, the absorbance is measured at 570 nm with a micro-plate reader.

[3] = system: PC12 cells; assay: Effect of the compounds on viability of PC12 cells; conditions: final concentration 50 μM, FIGS. 12A to 12C
Procedure: as §2

[4] = system: SH-SY5Y cells; assay: MTT assay, Tm-induced cytotoxicity in SH-SY5Y cells (FIG. 13B); conditions: pre-treatment 12.5, 25, 50 μM for 12 h, then inducer 48 h
Procedure: as §1

[5] = system: PC12 cells; assay: MTT assay and microscopy, tunicamycin (Tm)-induced cytotoxicity in PC12 cells; conditions: for cell death and cell growth induced by Tm (microscopic observations): PC12 cells pre-treated with 50 μM, FIG. 12A; for Tm-induced PC12 cell toxicity (MTT assay): pre-treatment 12.5, 25, 50 μM for 12 h, then Tm 48 h, FIG. 12B
Procedure: as §2

[6] = system: SH-SY5Y cells; assay: MTT assay and microscopy, Tg-induced cytotoxicity in SH-SY5Y cells; conditions: for Tg-induced cell death and cell growth (microscopic observations): SH-SY5Y cells pre-treated with 50 μM, FIG. 13A; for ER stress-mediated Tg-induced cytotoxicity in SH-SY5Y cells (MTT assay): pre-treatment 12.5, 25, 50 μM for 12 h, then Tg 48 h, FIG. 13C
Procedure: as §1

SMILES | adverse effects on cell viability [1] | ER stress-mediated cytotoxicity in PC12 cells induced by Tg (MTT assay) [2] | adverse effects on cell viability [3] | Tg-induced SH-SY5Y cell toxicity (MTT assay, FIG. 13B) [4] | cell death and cell growth induced by Tm (microscopic observations) [5] | Tm-induced PC12 cell toxicity (MTT assay) [5] | Tg-induced cell death and cell growth (microscopic observations) [6] | ER stress-mediated Tg-induced cytotoxicity in SH-SY5Y cells (MTT assay) [6]
O=C(NCCc1ccc(O)cc1)C1=C[C@]23C=CC(=O)[C@@]2(O)c2cc(O)c(O)cc2[C@@H]3[C@H]1C(=O)NCCc1ccc(O)cc1 [Sativamide A] | no adverse effects on cell viability | suppress ER stress-mediated cytotoxicity in PC12 cells that is induced by Tg in a dose-dependent manner | no adverse effects on cell viability | mitigate the Tg-induced SH-SY5Y cell toxicity in a dose-dependent manner | markedly reduced | mitigate the Tm-induced PC12 cell toxicity in a dose-dependent manner | markedly reduced | suppress ER stress-mediated Tg-induced cytotoxicity in SH-SY5Y cells tin a dose-dependent manner
CO[C@]12C(=O)C=C[C@]13C=C(C(=O)NCCc1ccc(O)cc1)[C@H](C(=O)NCCc1ccc(O)cc1)[C@@H]3c1cc(O)c(O)cc12 [Sativamide B, 10-methoxyl-sativamide A] | no adverse effects on cell viability | suppress ER stress-mediated cytotoxicity in PC12 cells that is induced by Tg in a dose-dependent manner | no adverse effects on cell viability | mitigate the Tg-induced SH-SY5Y cell toxicity in a dose-dependent manner | markedly reduced | mitigate the Tm-induced PC12 cell toxicity in a dose-dependent manner | markedly reduced | suppress ER stress-mediated Tg-induced cytotoxicity in SH-SY5Y cells tin a dose-dependent manner
